Experimental data published in article PMC10743905, “Design, Synthesis, and In Vitro and In Vivo Bioactivity Studies of Hydrazide–Hydrazones of 2,4-Dihydroxybenzoic Acid” (International Journal of Molecular Sciences, 2023).
Several values for one entry are separate records, joined by “and”; a condition that tells them apart may be missing. Identical values can stand only once. Like-named read-outs stand apart in the source and are kept apart here.

Key:
[1] = in vivo; conditions: in vivo
Protocol: Wild-type AB strain zebrafish (Danio rerio) were housed in the Experimental Medicine Centre of Medical University of Lublin (Lublin, Poland), where all the experimental procedures on embryos and larvae were carried out. The animals were kept on a recirculating water supply at 26 ± 1 °C and a 10/14 dark–light cycle, and they were fed with artemia and commercial feed. Danio rerio embryos were obtained from females between 4 and 15 months of age. […] In order to avoid genetic bias in the study, eggs were randomly collected from at least three breeding groups, rinsed, and placed in Petri dishes in the cultured medium, which for Danio rerio is E3 solution. […] In accordance with the legislation of the European Union and Poland, the experiments performed on the earliest life-stages of Danio rerio until 120 h post-fertilization (120 hpf), not defined as protected, are not subject to regulations for animal experimentation.
They address the testing of chemicals using the Fish Embryo Acute Toxicity (FET) test with the species Danio rerio.
Immediately after fertilization, eggs were placed in sterile 24-well plates and exposed for 96 h to at least five concentrations of the test chemical, ranging from 1 to 500 µM and prepared ex tempore on each day of exposure, according to the principle of one egg per well and one concentration per plate. In each plate, 20 wells were filled with the solutions of the tested substance, and 4 wells of the last column were a negative internal control with E3 medium. Each well was filled with 2 mL of solution. Positive control plates were also prepared according to this scheme with 4 mg/L of 3,4-dichloroaniline (Sigma-Aldrich, Poznań, Poland) and a negative control with E3, and a negative solvent control with 1% DMSO, which was used as a solvent for the tested substances. At four time points, microscopic observations were made every 24 h. As indicators of mortality (so-called terminal observations; when at least one of these occurs, embryonic death is declared), the following were recorded: the coagulation of embryos, a lack of somite formation, a lack of detachment of the tail from the yolk sac and a lack of a heartbeat, which was observed from the 48th hour of the study. To confirm the absence of a heartbeat, a microscopic observation was conducted at 80× magnification for one minute. Then, the solutions of the tested chemicals, to maintain their constant composition throughout the test, were replaced with fresh ones, and the plates were incubated for another 24 h in an incubator at 26 ± 1 °C. […] In addition, a quantitative and qualitative summary of the morphological and physiological abnormalities that occurred in the tested Danio rerio embryos and larvae was also made. These included yolk sac edema, pericardial edema, spinal flexure, head deformities, tail deformities, developmental delay defined as a lack of hatching success for 96 hpf larvae, and also bradycardia.
Regression analysis was performed with Excel, and the above-mentioned values were obtained from the linear type of regression analysis. […] The results obtained from the heart rate study of 96 hpf zebrafish larvae were subjected to statistical analysis using one-way analysis of variance (ANOVA) and a post hoc Bonferroni test. The significance level was taken as p < 0.05.

[2] = system: Candida glabrata ATCC 90030; test: Broth microdilution MIC/MFC; format: cell-based; conditions: for MIC / MFC: Nakaseomyces glabratus; for MIC: ATCC90030, read-out: MIC; for MFC: ATCC90030, read-out: MFC
Outline: (§1)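 Minimal inhibitory concentrations are determined by broth microdilution following EUCAST and CLSI. DMSO-dissolved compounds are serially halved from 1000 to 0.488 µg/ml final; inocula are 0.5 McFarland.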

[3] = system: Candida albicans ATCC 10231; test: Broth microdilution MIC/MFC; format: cell-based; conditions: for MFC: ATCC10231, read-out: MFC; for MIC: ATCC10231, read-out: MIC
Outline: as §1

[4] = system: Bordetella bronchiseptica ATCC 4617; test: Broth microdilution MIC/MBC; format: cell-based; conditions: for MIC / MBC: ATCC4617
Outline: as §1

[5] = system: Escherichia coli ATCC 25922; test: Broth microdilution MIC/MBC; format: cell-based; conditions: for MIC / MBC: ATCC25922
Outline: as §1

[6] = system: Bacillus cereus ATCC 10876; test: Broth microdilution MIC/MBC; format: cell-based; conditions: for MBC: ATCC10876
Outline: as §1

[7] = system: Enterococcus faecalis ATCC 29212; test: Broth microdilution MIC/MBC; format: cell-based; conditions: for MBC: ATCC29212, read-out: MBC; for MIC: ATCC29212, read-out: MIC
Outline: as §1

[8] = system: Klebsiella pneumoniae ATCC 13883; test: Broth microdilution MIC/MBC; format: cell-based; conditions: for MIC / MBC: ATCC13883
Outline: as §1

[9] = system: Gram-negative bacteria; test: Broth microdilution, summary over the Gram-negative panel; format: cell-based
Excerpt: In vitro antimicrobial activity assays - Methodology
The examined compounds 1 - 24 were screened in vitro for antibacterial and antifungal activities using the broth microdilution method according to procedure reported earlier by our research group and European Committee on Antimicrobial Susceptibility Testing (EUCAST) and Clinical and Laboratory Standards Institute (CLSI) guidelines against a panel of reference and clinical or saprophytic strains of microorganisms, in-cluding Gram-positive bacteria, Staphylococcus aureus ATCC 43300 (Methicillin Resistant S. aureus – MRSA), Staphylococcus aureus ATCC 29213 (Methicillin Susceptible S. aureus – MSSA), Staphylococcus epidermidis ATCC 12228, Enterococcus faecalis ATCC 29212, Micro-coccus luteus ATCC 10240, Bacillus subtilis ATCC 6633 and Bacillus cereus ATCC 10876), Gram-negative bacteria (Bordetella bronchiseptica ATCC 4617, Escherichia coli ATCC 25922, Klebsiella pneumoniae ATCC 13883, Proteus mirabilis ATCC 12453, Salmonella typhimurium ATCC 14028 and Pseudomonas aeruginosa ATCC 9027) and fungi belonging to yeasts (Can-dida albicans ATCC 10231, Candida albicans ATCC 2091, Candida parapsilosis ATCC 22019, Candida glabrata ATCC 90030 and Candida krusei ATCC 14243). The microorganisms be-longing to ATCC came from American Type Culture Collection, routinely used for the evaluation of antimicrobials. All the used microbial cultures were first subcultured on nu-trient agar or Sabouraud agar at 35°C for 18-24 h or 30°C for 24-48 h for bacteria and fungi, […]
The surface of Mueller-Hinton agar (for bacteria) and RPMI 1640 with MOPS (for fungi) were inoculated with the suspensions of bacterial or fungal species. Microbial suspensions were prepared in sterile saline with an optical density of McFarland standard scale 0.5.
Samples containing examined compounds were dissolved in dimethyl sulfoxide (DMSO).
Furthermore, bacterial and fungal suspensions were put onto Petri dishes with solid me-dia containing 2 mg/mL of the tested compounds followed incubation at 37°C for 24h and 30°C for 48h for bacteria and fungi, respectively. The inhibition of microbial growth was judged by comparison with a control culture prepared without any sample tested. Ciprof-loxacin, vancomycin, nitrofurantoin, cefuroxime, ampicillin or nystatin (Sigma) were used as a reference antibacterial or antifungal compounds, respectively.
Subsequently, the MIC (Minimal Inhibitory Concentration) of the compounds was ex-amined by the microdilution broth method, using their two-fold dilutions in Mueller- […]
Hinton broth or (for bacteria) and RPMI 1640 broth with MOPS (for fungi) prepared in 96-well polystyrene plates. Final concentrations of the compounds ranged from 1000 to 0.488 µg/ml. Microbial suspensions were prepared in 0.85% NaCl with an optical density of 0.5 McFarland standard. Next each bacterial or fungal suspension was added per each well containing broth and various concentrations of the examined compounds. After incuba-

O=C(N/N=C/c1ccc([N+](=O)[O-])cc1)c1ccc(O)cc1O [Compound 21, 2,4-dihydroxy-N-[(4-nitrophenyl)methylidene]benzohydrazide]
> 4: MBC/MIC [7]
> 2: MFC/MIC [3] | MBC/MIC [6]
370 µM and 110 µg/mL: LC50 at 96 h [1]
500 µg/mL: MIC [3] | MIC ([6]; ATCC10876, read-out: MIC) | MIC [7]
> 1000 µg/mL: MIC [2] | MFC [3] | MIC [4] | MIC [5] | MBC [6] | MBC [7] | MIC [8]

O=C(N/N=C/c1ccccc1F)c1ccc(O)cc1O [Compound 24, N-[(2-fluorophenyl)methylidene]-2,4-dihydroxybenzohydrazide]
> 1000 µg/mL: MIC [2] | MFC [3] | MIC [4] | MIC [5] | MBC [6] | MBC [7] | MIC [8]
> 1: MFC/MIC [3] | MBC/MIC [6] | MBC/MIC [7]
4.24 mM and 1160 µg/mL: LC50 at 96 h [1]
1000 µg/mL: MIC [3] | MIC ([6]; ATCC10876, read-out: MIC) | MIC [7]

CCCc1ccc(/C=N/NC(=O)c2ccc(O)cc2O)cc1 [Compound 13, 2,4-dihydroxy-N-[(4-propylphenyl)methylidene]benzohydrazide]
1000 µg/mL: MIC [2] | MIC [3] | MIC [4] | MIC [5] | MIC ([6]; ATCC10876, read-out: MIC) | MIC [7] | MIC [8]
> 1000 µg/mL: MFC [2] | MFC [3] | MBC [4] | MBC [5] | MBC [6] | MBC [7] | MBC [8] | MBC [9]
500 to 1000 µg/mL: MIC [9]
> 1: MFC/MIC [2] | MFC/MIC [3] | MBC/MIC [4] | MBC/MIC [5] | MBC/MIC [6] | MBC/MIC [7] | MBC/MIC [8]

O=C(N/N=C/c1ccccc1Cl)c1ccc(O)cc1O [Compound 22, N-[(2-chlorophenyl)methylidene]-2,4-dihydroxybenzohydrazide]
> 1000 µg/mL: MIC [2] | MFC [3] | MIC [4] | MIC [5] | MIC ([6]; ATCC10876, read-out: MIC) | MIC [7] | MIC [8]
56.6 µM and 16.4 µg/mL: LC50 at 96 h [1]
> 1: MFC/MIC [3]
1000 µg/mL: MIC [3]

O=C(N/N=C/c1ccccc1Br)c1ccc(O)cc1O [Compound 23, N-[(2-bromophenyl)methylidene]-2,4-dihydroxybenzohydrazide]
> 1: MFC/MIC [3]
> 1000 µg/mL: MIC [2] | MFC [3] | MIC [4] | MIC [5] | MIC ([6]; ATCC10876, read-out: MIC) | MIC [7] | MIC [8]
1000 µg/mL: MIC [3]
85.6 µM and 30.4 µg/mL: LC50 at 96 h [1]

O=C(N/N=C/c1cccc([N+](=O)[O-])c1)c1ccc(O)cc1O [Compound 20, 2,4-dihydroxy-N-[(3-nitrophenyl)methylidene]benzohydrazide]
> 1000 µg/mL: MIC [2] | MFC [3] | MIC [4] | MIC [5] | MIC ([6]; ATCC10876, read-out: MIC) | MIC [7] | MIC [8]
1000 µg/mL: MIC [3]
34.8 mM and 10500 µg/mL: LC50 at 96 h [1]
> 1: MFC/MIC [3]

O=C(N/N=C/c1cc(I)cc(I)c1O)c1ccc(O)cc1O [Compound 18, 2,4-dihydroxy-N-[(2-hydroxy-3,5-diiodophenyl)methylidene]benzohydrazide]
3.91 µg/mL: MIC [6] | MIC ([6]; ATCC10876, read-out: MIC) | MIC [7]
15.6 µg/mL: MBC [6] | MBC [7]
> 2: MBC/MIC [4] | MBC/MIC [5] | MBC/MIC [8]
500 to 1000 µg/mL: MIC [9]
> 1: MFC/MIC [2] | MFC/MIC [3]
> 1000 µg/mL: MFC [2] | MFC [3] | MBC [4] | MBC [5] | MBC [8] | MBC [9]
4: MBC/MIC [6] | MBC/MIC [7]
500 µg/mL: MIC [4] | MIC [5] | MIC [8]
1000 µg/mL: MIC [2] | MIC [3]

O=C(N/N=C/c1ccccc1[N+](=O)[O-])c1ccc(O)cc1O [Compound 19, 2,4-dihydroxy-N-[(2-nitrophenyl)methylidene]benzohydrazide]
500 µg/mL: MIC [2] | MIC [7] | MIC [8]
> 1000 µg/mL: MFC [2] | MFC [3] | MBC [4] | MBC [5] | MBC [6] | MBC [7] | MBC [8]
> 2: MFC/MIC [2] | MBC/MIC [7]
> 4: MFC/MIC [3] | MBC/MIC [6]
> 1: MBC/MIC [4] | MBC/MIC [5] | MBC/MIC [8]
500 to 1000 µg/mL: MIC [9]
250 µg/mL: MIC [3] | MIC ([6]; ATCC10876, read-out: MIC)
1000 µg/mL: MIC [4] | MIC [5]
